Test results: patent US9695155B2, “Herbicidal substituted pyrimidinyloxy benzene compounds” (E. I. DU PONT DE NEMOURS AND COMPANY, priority 2013, dated 2017)

How the values were obtained:
[1] = tested on: johnsongrass; experiment: Test C preemergence; format: in vivo, Sorghum halepense; conditions: Sorghum halepense, pre-emergence
How it was run: (§1)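 Rated visually on 0–100 (100 = complete control) after 13–15 days under glass. Treatments went onto freshly seeded loam/sand soil or onto emerged plants at the 1- to 4-leaf stage, using a surfactant-containing solvent formulation.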

[2] = tested on: blackgrass; experiment: Test C preemergence; format: in vivo, Alopecurus myosuroides; conditions: Alopecurus myosuroides, pre-emergence
How it was run: as §1

[3] = tested on: ragweed; experiment: Test C preemergence; format: in vivo, Ambrosia elatior; conditions: Ambrosia artemisiifolia, pre-emergence
How it was run: as §1

[4] = tested on: galium; experiment: Test C preemergence; format: in vivo, Galium aparine; conditions: Galium, pre-emergence
How it was run: as §1

[5] = tested on: velvetleaf; experiment: Test C preemergence; format: in vivo, Abutilon theophrasti; conditions: Abutilon theophrasti, pre-emergence
How it was run: as §1

[6] = tested on: yellow nutsedge; experiment: Test C preemergence; format: in vivo, Cyperus esculentus; conditions: Cyperus, pre-emergence
How it was run: as §1

[7] = tested on: barnyardgrass; experiment: Test C preemergence; format: in vivo, Echinochloa crus-galli; conditions: Echinochloa crus-galli, pre-emergence
How it was run: as §1

[8] = tested on: galium; experiment: Test A postemergence; format: in vivo, Galium aparine; conditions: 0 to 100 scale, 0 no effect, 100 complete control
How it was run: (§2)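 Pre- and postemergence greenhouse screen. Soil: loam + sand. Spray carrier: solvent mixture, non-phytotoxic, with surfactant. Post timing at 1–2 leaves, height 2–10 cm. Readout: visual injury on a 0–100 scale roughly 10 days after application, untreated plants as reference.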

[9] = tested on: soybean; experiment: Test C preemergence; format: in vivo, Glycine max; conditions: Glycine max, pre-emergence
How it was run: as §1

[10] = tested on: giant foxtail; experiment: Test C preemergence; format: in vivo, Setaria faberii; conditions: Setaria faberi, pre-emergence
How it was run: as §1

[11] = tested on: pigweed; experiment: Test C preemergence; format: in vivo, Amaranthus retroflexus; conditions: Amaranthus retroflexus, pre-emergence
How it was run: as §1

[12] = tested on: oilseed rape; experiment: Test C preemergence; format: in vivo, Brassica napus; conditions: Brassica napus, pre-emergence
How it was run: as §1

[13] = tested on: lambsquarters; experiment: Test C preemergence; format: in vivo, Chenopodium album; conditions: Chenopodium album, pre-emergence
How it was run: as §1

[14] = tested on: kochia; experiment: Test A preemergence; format: in vivo, Kochia scoparia
How it was run: as §2

[15] = tested on: wheat, winter; experiment: Test C preemergence; format: in vivo, Triticum aestivum; conditions: Triticum aestivum, pre-emergence
How it was run: as §1

[16] = tested on: Italian ryegrass; experiment: Test A preemergence; format: in vivo, Lolium multiflorum
How it was run: as §2

[17] = tested on: kochia; experiment: Test A postemergence; format: in vivo, Kochia scoparia; conditions: 0 to 100 scale, 0 no effect, 100 complete control
How it was run: as §2

[18] = tested on: waterhemp; experiment: Test C preemergence; format: in vivo, Amaranthus rudis; conditions: Amaranthus tuberculatus, pre-emergence
How it was run: as §1

[19] = 31 g ai/ha, 0 to 100 scale where 0 is no effect and 100 is complete control, visual, approximately 10 days

N#Cc1cccc(Oc2ncc(Cl)cn2)c1-n1cc(C(F)F)cn1 [Compound 253, 3-(5-chloropyrimidin-2-yl)oxy-2-[4-(difluoromethyl)-1H-pyrazol-1-yl]benzonitrile]
pest or weed control at 16 g/ha ([1]; 16 g ai/ha, preemergence, scale 0 to 100 (0 no effect, 100 complete control), read-out: Johnsongrass plant response rating): 15% | pest or weed control at 125 g/ha ([1]; 125 g ai/ha, preemergence, scale 0 (no effect) to 100 (complete control), read-out: Johnsongrass plant response rating): 100% | pest or weed control at 62 g/ha ([1]; Preemergence, 62 g ai/ha, scale 0 to 100, 0 no effect, 100 complete control, read-out: Plant response rating, Johnsongrass): 60% | pest or weed control at 16 g/ha ([2]; 16 g ai/ha, preemergence, scale 0 to 100 (0 no effect, 100 complete control), read-out: Blackgrass plant response rating): 0% | pest or weed control at 125 g/ha ([2]; 125 g ai/ha, preemergence, scale 0 (no effect) to 100 (complete control), read-out: Blackgrass plant response rating): 90% | pest or weed control at 62 g/ha ([2]; Preemergence, 62 g ai/ha, scale 0 to 100, 0 no effect, 100 complete control, read-out: Plant response rating, Blackgrass): 90% | pest or weed control at 16 g/ha ([3]; 16 g ai/ha, preemergence, scale 0 to 100 (0 no effect, 100 complete control), read-out: Ragweed plant response rating): 35% | pest or weed control at 125 g/ha ([3]; 125 g ai/ha, preemergence, scale 0 (no effect) to 100 (complete control), read-out: Ragweed plant response rating): 100% | pest or weed control at 62 g/ha ([3]; Preemergence, 62 g ai/ha, scale 0 to 100, 0 no effect, 100 complete control, read-out: Plant response rating, Ragweed): 85% | pest or weed control at 16 g/ha ([4]; 16 g ai/ha, preemergence, scale 0 to 100 (0 no effect, 100 complete control), read-out: Galium plant response rating): 70% | pest or weed control at 125 g/ha ([4]; 125 g ai/ha, preemergence, scale 0 (no effect) to 100 (complete control), read-out: Galium plant response rating): 95% | pest or weed control at 62 g/ha ([4]; Preemergence, 62 g ai/ha, scale 0 to 100, 0 no effect, 100 complete control, read-out: Plant response rating, Galium): 100% | pest or weed control at 16 g/ha ([5]; 16 g ai/ha, preemergence, scale 0 to 100 (0 no effect, 100 complete control), read-out: Velvetleaf plant response rating): 55% | pest or weed control at 125 g/ha ([5]; 125 g ai/ha, preemergence, scale 0 (no effect) to 100 (complete control), read-out: Velvetleaf plant response rating): 100% | pest or weed control at 62 g/ha ([5]; Preemergence, 62 g ai/ha, scale 0 to 100, 0 no effect, 100 complete control, read-out: Plant response rating, Velvetleaf): 100% | pest or weed control at 16 g/ha ([6]; 16 g ai/ha, preemergence, scale 0 to 100 (0 no effect, 100 complete control), read-out: Nutsedge, Yellow plant response rating): 0% | pest or weed control at 125 g/ha ([6]; 125 g ai/ha, preemergence, scale 0 (no effect) to 100 (complete control), read-out: Nutsedge, Yellow plant response rating): 65% | pest or weed control at 62 g/ha ([6]; Preemergence, 62 g ai/ha, scale 0 to 100, 0 no effect, 100 complete control, read-out: Plant response rating, Nutsedge, Yellow): 20% | pest or weed control at 16 g/ha ([7]; 16 g ai/ha, preemergence, scale 0 to 100 (0 no effect, 100 complete control), read-out: Barnyardgrass plant response rating): 30% | pest or weed control at 125 g/ha ([7]; 125 g ai/ha, preemergence, scale 0 (no effect) to 100 (complete control), read-out: Barnyardgrass plant response rating): 100% | pest or weed control at 62 g/ha ([7]; Preemergence, 62 g ai/ha, scale 0 to 100, 0 no effect, 100 complete control, read-out: Plant response rating, Barnyardgrass): 100% | Plant response rating, Galium ([8]; 31 g ai/ha): 60 | Plant response rating, Galium ([8]; 125 g ai/ha): 100 | plant injury at 16 g/ha ([9]; 16 g ai/ha, preemergence, scale 0 to 100 (0 no effect, 100 complete control), read-out: Soybean plant response rating): 40% | plant injury at 125 g/ha ([9]; 125 g ai/ha, preemergence, scale 0 (no effect) to 100 (complete control), read-out: Soybean plant response rating): 98% | plant injury at 62 g/ha ([9]; Preemergence, 62 g ai/ha, scale 0 to 100, 0 no effect, 100 complete control, read-out: Plant response rating, Soybean): 95% | pest or weed control at 16 g/ha ([10]; 16 g ai/ha, preemergence, scale 0 to 100 (0 no effect, 100 complete control), read-out: Foxtail, Giant plant response rating): 35% | pest or weed control at 125 g/ha ([10]; 125 g ai/ha, preemergence, scale 0 (no effect) to 100 (complete control), read-out: Foxtail, Giant plant response rating): 100% | pest or weed control at 62 g/ha ([10]; Preemergence, 62 g ai/ha, scale 0 to 100, 0 no effect, 100 complete control, read-out: Plant response rating, Foxtail, Giant): 98% | pest or weed control at 16 g/ha ([11]; 16 g ai/ha, preemergence, scale 0 to 100 (0 no effect, 100 complete control), read-out: Pigweed plant response rating): 100% | pest or weed control at 125 g/ha ([11]; 125 g ai/ha, preemergence, scale 0 (no effect) to 100 (complete control), read-out: Pigweed plant response rating): 100% | pest or weed control at 62 g/ha ([11]; Preemergence, 62 g ai/ha, scale 0 to 100, 0 no effect, 100 complete control, read-out: Plant response rating, Pigweed): 100% | plant injury at 16 g/ha ([12]; 16 g ai/ha, preemergence, scale 0 to 100 (0 no effect, 100 complete control), read-out: Oilseed Rape plant response rating): 75% | plant injury at 125 g/ha ([12]; 125 g ai/ha, preemergence, scale 0 (no effect) to 100 (complete control), read-out: Oilseed Rape plant response rating): 100% | plant injury at 62 g/ha ([12]; Preemergence, 62 g ai/ha, scale 0 to 100, 0 no effect, 100 complete control, read-out: Plant response rating, Oilseed Rape): 100% | pest or weed control at 16 g/ha ([13]; 16 g ai/ha, preemergence, scale 0 to 100 (0 no effect, 100 complete control), read-out: Lambsquarters plant response rating): 100% | pest or weed control at 125 g/ha ([13]; 125 g ai/ha, preemergence, scale 0 (no effect) to 100 (complete control), read-out: Lambsquarters plant response rating): 100% | pest or weed control at 62 g/ha ([13]; Preemergence, 62 g ai/ha, scale 0 to 100, 0 no effect, 100 complete control, read-out: Plant response rating, Lambsquarters): 100% | Plant response rating, Kochia [14, 19]: 90 | Kochia plant response rating (0 to 100 scale) ([14]; 125 g ai/ha): 100 | plant injury at 16 g/ha ([15]; 16 g ai/ha, preemergence, scale 0 to 100 (0 no effect, 100 complete control), read-out: Wheat plant response rating): 0% | plant injury at 125 g/ha ([15]; 125 g ai/ha, preemergence, scale 0 (no effect) to 100 (complete control), read-out: Wheat plant response rating): 60% | plant injury at 62 g/ha ([15]; Preemergence, 62 g ai/ha, scale 0 to 100, 0 no effect, 100 complete control, read-out: Plant response rating, Wheat): 0% | Plant response rating, Ryegrass, Italian [16, 19]: 20 | Ryegrass, Italian plant response rating (0 to 100 scale) ([16]; 125 g ai/ha): 20 | Plant response rating, Kochia ([17]; 31 g ai/ha): 100 | Plant response rating, Kochia ([17]; 125 g ai/ha): 100 | pest or weed control at 16 g/ha ([18]; 16 g ai/ha, preemergence, scale 0 to 100 (0 no effect, 100 complete control), read-out: Waterhemp plant response rating): 100% | pest or weed control at 125 g/ha ([18]; 125 g ai/ha, preemergence, scale 0 (no effect) to 100 (complete control), read-out: Waterhemp plant response rating): 100% | pest or weed control at 62 g/ha ([18]; Preemergence, 62 g ai/ha, scale 0 to 100, 0 no effect, 100 complete control, read-out: Plant response rating, Waterhemp): 100%
